This is an account of results in patent US8680113B2, “BMI-1 protein expression modulators” (PTC Therapeutics, Inc., priority 2008, dated 2014).

Some results are limits rather than exact numbers.

The test system of series [1] is HT1080 cells (human fibrosarcoma cells). In kind it is in vivo, nude mice. Here is the method: (§1) HT1080 cells (human fibrosarcoma cells) were implanted subcutaneously in nude mice. After seven days, mice were administered compounds subcutaneously at 30 or 60 mg/kg/day for ten days. The tumors were then excised from mice and homogenized in Tris-HCl buffer containing a cocktail of proteinase inhibitors. Intratumor Bmi-1 levels were subsequently measured using the Bmi-1 ELISA assay of Example 1. Protein concentrations of the homogenates were measured with a Bio-Rad Protein assay kit and intratumor Bmi-1 levels were normalized to the protein concentrations. Treatment with the compound for ten days inhibited tumor growth by 35% as compared to the vehicle-treated control groups. […] Since p27 expression is not regulated by Bmi-1 activity, no changes in the levels of this protein were observed within treated tumors.

Series [2] relates to Bmi-1. Description: Cell Model Assay: Bmi-1 expression in KG1. Format: cell-based. The note with it: KG1 (acute myelogenous leukemia). The method, then: (§2) Using assay conditions known to those skilled in the art, the ability of the compounds described herein to reduce Bmi-1 expression in HT1080 (fibrosarcoma), U87-MG (glioblastoma), T98G (glioblastoma), K562 (chronic myelogenous leukemia) and KG1 (acute myelogenous leukemia) cell lines was tested (at test compound concentrations calculated from the ELISA assay data shown in Example 1) compared to puromycin as a control to provide the EC50 values shown in Table 2. The term “ND” means that data was not determined.

The subject of the next series is p27. Description: In-Vivo Xenograft Model: intratumor p27 levels (control). Details: species or system nude mice. The following applies: subcutaneously at 30 or 60 mg/kg/day for ten days. Here is the method:
as §1

The next series concerns MCL-Mino. Kind of series: Mantle Cell Lymphoma Assay: cytotoxicity, Mino. The note with it: MCL-Mino, 72 hrs; for viability at 0.004 µM / viability at 0.037 µM / viability at 0.11 µM / viability at 0.33 µM / viability at 1 µM / viability at 3 µM: Homo sapiens, read-out: Cell Viability (%). In kind it is cell-based. The source says:
(§3) MCL cell lines Jeko, Mino, and Rec-1 were provided by American Type Culture Collection: The Bioresource Center (Manassas, Va.). […] Carlsbad, Calif.) in T-75 culture flasks. Cell concentration was maintained between 2 to 3×10^5 cells/mL. Early passage cells (passages 2-4) were used for all experiments. Ficoll-Histopaque density sedimentation (Sigma Aldrich) was used for separation of debris and purification of cell lines prior to experiments. […] The cytotoxic effect of test compounds on the MCL-cell lines was assessed by measuring cell concentration and cell viability using a Beckman Coulter Vi-Cell Counter. Controls and treated cells were harvested and counted at day 3.

For series [3], the system named is Bmi-1. Kind of series: In-Vivo Xenograft Model: intratumor Bmi-1 levels by Bmi-1 ELISA. The arrangement: species or system nude mice. The note with it: subcutaneously at 30 or 60 mg/kg/day for ten days, compared to the vehicle control (p<0.002). Here is the method: as §1
A general note: ELISA stands for enzyme-linked immunosorbent assay.

The subject of series [4] is Bmi-1. Kind of series: Cell Model Assay: Bmi-1 expression in T98G. In kind it is cell-based. The following applies: T98G (glioblastoma). Here is the method: as §2
The subject of series [5] is Bmi-1. Description: Cell Model Assay: Bmi-1 expression in K562. The following applies: K562 (chronic myelogenous leukemia). Format: cell-based. The method, then:
as §2

Series [6] deals with Caspases 3, 7, 8, 9 and PARP. Description: Western Blot Analysis: activation of apoptosis proteins in MCL cell lines. Format: cell-based. The note with it: MCL cells cultured for 72 hrs, FIG. 2. The method, then: (§4) Western Blot analysis was used to determine cytoplasmic protein levels of Bmi-1 and activation of key executioner proteins (Caspases 3, 7, 8, 9) involved in apoptosis. Protein levels were measured in Bmi-1 inhibitor-treated mantle cell lymphoma cell lines. […] Cells were harvested at each time point, washed with ice-cold PBS, and lysed with 1× lysis buffer (20 mM Tris-HCl (pH 7.5), 150 mM NaCl, 1 mM Na2EDTA, 1 mM EGTA, 1% Triton, 2.5 mM sodium pyrophosphate, 1 mM beta-glycerophosphate, 1 mM Na3VO4, 1 μg/ml leupeptin; Cell Signaling Technology; Danvers, Mass.). Protein concentrations were determined using Pierce BCA protein assay (Thermo Scientific; Rockford, Ill.). Electrophoresis of cell lysates (25 μg) were performed with Mini Protean Systems by Bio-Rad Laboratories and run in Bio-Rad Readymade Pre-Cast Gels (4-20% Tris-HCl gels). Proteins were transferred onto PVDF membrane (Bio-Rad), and immunoblotted with anti-Bmi-1-clone F6 antibody (Millipore; Temecula, Calif.) and Caspases 3, 7, 8 and 9 (Cell Signaling Technology; Danvers, Mass.).
For orientation: In western blotting, separated proteins are transferred to a membrane and probed.

For the next series, the system named is MCL-Jeko. Kind of series: Mantle Cell Lymphoma Assay: cytotoxicity, Jeko. In kind it is cell-based. The note with it: MCL-Jeko, 72 hrs.
From the text: as §3

Series [7] relates to Jeko, Mino and Rec1 MCL-cell lines. Description: Cell Cycle Analysis (propidium iodide flow cytometry). In kind it is cell-based. The note with it: MCL cells, 60 nM, FIG. 3. The method, then:
Cell cycle analysis was performed for MCL-cell lines treated with Bmi-1 inhibitor Compounds 1 (data not shown), 14 and 49 (data not shown). For example, Jeko, Mino and Red cells treated with BMI-1 inhibitor Compound 14 at concentrations of 60 nM, 75 nM, and 60 nM, respectively were cultured in T-25 flasks for 24, 48 and 72 hours in 37° C. About 1×10^6 cells were harvested, washed with PBS, fixed with ice-cold 70% ethanol, and treated with 1 mg/ml RNase A (Invitrogen; Carlsbad, Calif.). Cells were then stained with 5 μL 1 mg/mL Propidium Iodide (Sigma-Aldrich; St. Louis, Mo.), incubated in ice for at least 1 hr, and the cell cycle profile was determined using flow cytometry analysis. The same protocol was followed for cell cycle analysis of Jeko, Mino, and Rec1 cell lines treated with Compounds 1 (data not shown) and 49 (data not shown).
On the technique in general: A flow cytometer gives signals particle by particle.

Series [8] has as its system Bmi-1. Description: Western Blot Analysis: Bmi-1 levels in MCL cell lines. In kind it is cell-based. The note with it: MCL cells cultured for 72 hrs, FIG. 2. The method, then: as §4

Regarding `COc1cc(Br)c(Nc2nc(-c3c(C)nc4ncccn34)cs2)c(Br)c1` [Cpd 1, N-(2,6-dibromo-4-methoxyphenyl)-4-(2-methylimidazo[1,2-a]pyrimidin-3-yl)thiazol-2-amine], in [1] (over the 10 day experiment), the “toxicity within treated mice” value was “no toxicity was observed”. Further, the inhibited tumor growth in [1] (subcutaneously at 30 or 60 mg/kg/day for ten days, compared to vehicle-treated control groups) is reported as 35%. Further, the EC50 in the series on Bmi-1 [2] turned out to be 321 nM; in the series with Bmi-1 [4], 220 nM; in the series with Bmi-1 [5], 374 nM. Besides, the “p27 levels within treated tumors” value in the series on p27 is reported as “no changes”. In the series with MCL-Mino (0.004 μM), the viability at 0.004 µM was found to be 94.7 ± 0.2%. The viability at 0.037 µM in the series with MCL-Mino (0.037 μM) was found to be 95.1 ± 0.2%. The viability at 0.11 µM with MCL-Mino (0.11 μM) was 94.6 ± 0.2%. Also, the viability at 0.33 µM in the series on MCL-Mino (0.33 μM) is 94.5 ± 0.3%. Also, the viability at 1 µM with MCL-Mino (1 μM) amounted to 89.4 ± 0.4%. The viability at 3 µM in the series on MCL-Mino (3 μM) turned out to be 59.3 ± 0.5%. Besides, the “Cell Concentration (×10^6)” value in the series on MCL-Mino (0.004 μM) is listed as 1.53 ± 0.07 ×10^6; with MCL-Mino (0.037 μM), 1.53 ± 0.05 ×10^6; in the series on MCL-Mino (0.11 μM), 1.55 ± 0.02 ×10^6; in the series with MCL-Mino (0.33 μM), 1.50 ± 0.02 ×10^6; with MCL-Mino (1 μM) it was 0.74 ± 0.02 ×10^6; with MCL-Mino (3 μM), 0.20 ± 0.01 ×10^6. In addition, in the series on Bmi-1 [3], the “reduced intratumor Bmi-1 protein levels” value was 67%.
Regarding `COc1ccc(Nc2nc(-c3c(C)nc4ncccn34)cs2)cc1` [Cpd 14, N-(4-methoxyphenyl)-4-(2-methylimidazo[1,2-a]pyrimidin-3-yl)thiazol-2-amine], the “activation of Caspase-9 and PARP” value in [6] is “activation of Caspase-9 and PARP”. For the same compound, the “Cell Concentration (×10^6)” value in the series on MCL-Jeko (0.004 μM) is on record as 1.83 ± 0.03 ×10^6; with MCL-Jeko (0.037 μM), 1.63 ± 0.05 ×10^6; in the series with MCL-Jeko (0.11 μM) it was 0.07 ± 0.01 ×10^6; in the series on MCL-Jeko (0.33 μM), 0.02 ± 0.00 ×10^6; in the series on MCL-Jeko (1 μM), 0.02 ± 0.00 ×10^6; with MCL-Jeko (3 μM), 0.03 ± 0.00 ×10^6. Moreover, the “Cell Concentration (×10^6)” value in the series with MCL-Mino (0.004 μM) is given as 1.26 ± 0.01 ×10^6; with MCL-Mino (0.037 μM) it was 0.66 ± 0.24 ×10^6; with MCL-Mino (0.11 μM), 0.23 ± 0.01 ×10^6; with MCL-Mino (0.33 μM) it was 0.06 ± 0.01 ×10^6; with MCL-Mino (1 μM), 0.05 ± 0.01 ×10^6; with MCL-Mino (3 μM) it was 0.05 ± 0.00 ×10^6. Besides, the viability at 0.004 µM in the series with MCL-Jeko (0.004 μM, read-out: Cell Viability (%)) worked out at 74.9 ± 0.55%; in the series with MCL-Mino (0.004 μM), 92.27 ± 0.38%. Moreover, the viability at 0.037 µM worked out at 69.4 ± 1.63% in the series on MCL-Jeko (0.037 μM, read-out: Cell Viability (%)) and 64.5 ± 16.6% with MCL-Mino (0.037 μM). Also, the viability at 0.11 µM in the series with MCL-Jeko (0.11 μM, read-out: Cell Viability (%)) came to 6.5 ± 0.55%; with MCL-Mino (0.11 μM), 40.6 ± 1.91%. In addition, the viability at 0.33 µM in the series on MCL-Jeko (0.33 μM, read-out: Cell Viability (%)) was found to be 1.9 ± 0.31%; with MCL-Mino (0.33 μM) it was 18.1 ± 1.78%. Further, the viability at 1 µM in the series with MCL-Jeko (1 μM, read-out: Cell Viability (%)) came to 1.6 ± 0.26%; with MCL-Mino (1 μM), 13.5 ± 1.85%. Also, the viability at 3 µM was 2.5 ± 0.35% in the series with MCL-Jeko (3 μM, read-out: Cell Viability (%)) and 14.1 ± 0.28% in the series with MCL-Mino (3 μM). The DNA content entry in series [7] (at 48 and 72 hrs) is “increase in DNA content”. For the same compound, the cell cycle profile result in [7] (at 24 hrs) is “G2/M block”. Also, the concentration giving a half-maximal response (EC50) with Bmi-1 [4] was below 4 nM. Moreover, the Bmi-1 levels result with Bmi-1 [8] is “time dependant decrease”.

In general, EC50 refers to the concentration that produces a half-maximal response. A low value points to an effect from little substance. As a reminder, the viability is a per cent measure of how many cells are alive, often set against a control.
